Experimental data published in ChEMBL document CHEMBL1137071, “Phenyl thiazolyl urea and carbamate derivatives as new inhibitors of bacterial cell-wall biosynthesis” (Bioorg Med Chem Lett, 2004).
Converted amounts (≈) assume the structure as drawn.

Assays:
Assay type in all cases: functional
[1] = test system: Enterococcus faecalis; assay: Antimicrobial activity against Enterococcus faecalis GC 2242 (VRE)
[2] = test system: Streptococcus pneumoniae; assay: Antimicrobial activity against Streptococcus pneumoniae GC1894 (PRSP) in the presence of 4% bovine serum albumin
[3] = test system: Staphylococcus aureus; assay: Antimicrobial activity against Staphylococcus aureus GC 2216 (ATCC)
[4] = test system: Escherichia coli; assay: Antimicrobial activity against Escherichia coli GC 4560
[5] = Inhibitory activity against MurB from Escherichia coli
[6] = Antimicrobial activity against MSCNS (methicillin-susceptible coagulase-negative staphylococci) GC 646; settings: Staphylococcus
[7] = test system: Staphylococcus aureus; assay: Antimicrobial activity against Staphylococcus aureus GC 1131 (MRSA)
[8] = Inhibitory activity against MurA from Escherichia coli
[9] = test system: Streptococcus pneumoniae; assay: Antimicrobial activity against Streptococcus pneumoniae GC1894 (PRSP)
[10] = test system: Escherichia coli; assay: Antimicrobial activity against Escherichia coli GC 4559
[11] = test system: Enterococcus faecalis; assay: Antimicrobial activity against Enterococcus faecalis GC 4555 (ATCC)
[12] = Inhibitory activity against MurB from Staphylococcus aureus
[13] = test system: Staphylococcus aureus; assay: Antimicrobial activity against Staphylococcus aureus GC 4543 (MSSA)

Row | Compound | MIC [1] [µg/mL] | MIC [2] [µg/mL] | MIC [3] [µg/mL] | MIC [4] [µg/mL] | IC50 [5] [µg/mL] | MIC [6] [µg/mL] | MIC [7] [µg/mL] | IC50 [8] [µg/mL] | MIC [9] [µg/mL] | MIC [10] [µg/mL] | MIC [11] [µg/mL] | IC50 [12] [µg/mL] | MIC [13] [µg/mL]
1 | N#Cc1cnc(NC(=O)OCc2ccc(Cl)c(Cl)c2)s1 | 64 (≈ 195 µM) | > 128 | > 128 | > 128 | > 25 | > 128 | > 128 | > 25 | 128 (≈ 390 µM) | > 128 | 64 (≈ 195 µM) | 24 (≈ 73.1 µM) | > 128
2 | CC(C)(C)c1nc(NC(=O)Nc2ccc(F)c(F)c2)sc1C#N | 0.5 (≈ 1.49 µM) | 128 | < 0.12 | 1 (≈ 2.97 µM) | > 25 | 0.5 (≈ 1.49 µM) | < 0.12 | > 25 | < 0.12 | > 128 | 1 (≈ 2.97 µM) |  | < 0.12
3 | CC(C)(C)c1nc(NC(=O)OCc2ccc(Cl)c(Cl)c2)sc1C#N | 1 (≈ 2.6 µM) | > 128 | 8 (≈ 20.8 µM) | > 128 | 18 (≈ 46.8 µM) | > 128 | 2 (≈ 5.2 µM) | 25 (≈ 65.1 µM) | 0.25 (≈ 0.651 µM) | > 128 | 2 (≈ 5.2 µM) |  | 1 (≈ 2.6 µM)
4 | N#Cc1cnc(NC(=O)Nc2ccc(F)c(F)c2)s1 | 4 (≈ 14.3 µM) | 64 | 4 (≈ 14.3 µM) | 4 (≈ 14.3 µM) | 19 (≈ 67.8 µM) | 4 (≈ 14.3 µM) | 4 (≈ 14.3 µM) | > 25 | 0.5 (≈ 1.78 µM) | 8 (≈ 28.5 µM) | 4 (≈ 14.3 µM) |  | 2 (≈ 7.14 µM)
5 | CN[C@H](CC(C)C)C(=O)N[C@H]1C(=O)N[C@@H](CC(N)=O)C(=O)N[C@H]2C(=O)N[C@H]3C(=O)N[C@H](C(=O)N[C@H](C(=O)O)c4cc(O)cc(O)c4-c4cc3ccc4O)[C@H](O)c3ccc(c(Cl)c3)Oc3cc2cc(c3O[C@@H]2O[C@H](CO)[C@@H](O)[C@H](O)[C@H]2O[C@H]2C[C@](C)(N)[C@H](O)[C@H](C)O2)Oc2ccc(cc2Cl)[C@H]1O [VANCOMYCIN] | > 128 |  |  | 0.25 (≈ 0.173 µM) |  |  |  |  | < 0.12 | > 128 | 2 (≈ 1.38 µM) |  | 

Next, values leading:

Row | MIC [1] [µg/mL] | MIC [2] [µg/mL] | MIC [3] [µg/mL] | MIC [4] [µg/mL] | IC50 [5] [µg/mL] | MIC [6] [µg/mL] | MIC [7] [µg/mL] | IC50 [8] [µg/mL] | MIC [9] [µg/mL] | MIC [10] [µg/mL] | MIC [11] [µg/mL] | IC50 [12] [µg/mL] | MIC [13] [µg/mL] | Compound
6 | 1 (≈ 3 µM) | 128 | 0.25 (≈ 0.75 µM) | 2 (≈ 6 µM) | 3.8 (≈ 11.4 µM) | 0.5 (≈ 1.5 µM) | 1 (≈ 3 µM) | 4.6 (≈ 13.8 µM) | 0.25 (≈ 0.75 µM) | > 128 | 1 (≈ 3 µM) | 3 (≈ 9 µM) | 0.5 (≈ 1.5 µM) | O=C(Nc1ccc(Cl)c(Cl)c1)Nc1ncc([N+](=O)[O-])s1
7 | 128 (≈ 321 µM) | > 128 | > 128 | > 128 | > 25 | > 128 | > 128 | > 25 | > 128 | > 128 | > 128 | 13 (≈ 32.6 µM) | > 128 | N#Cc1sc(NC(=O)Nc2ccc(Cl)c(Cl)c2)nc1N1CCOCC1
8 | 0.5 (≈ 1.4 µM) | 128 | 0.5 (≈ 1.4 µM) | 0.5 (≈ 1.4 µM) | 23 (≈ 64.4 µM) | 0.5 (≈ 1.4 µM) | 1 (≈ 2.8 µM) | > 25 | < 0.12 | > 128 | > 128 |  | 0.5 (≈ 1.4 µM) | CCOc1nc(NC(=O)Nc2ccc(Cl)c(Cl)c2)sc1C#N
9 | 4 (≈ 11.7 µM) | > 128 | > 128 | > 128 | 9.8 (≈ 28.6 µM) | > 128 | > 128 | 21.6 (≈ 62.9 µM) | > 128 | > 128 | 32 (≈ 93.2 µM) |  | > 128 | COc1nc(NC(=O)Nc2ccc(Cl)c(Cl)c2)sc1C#N
10 | 0.25 (≈ 0.649 µM) | 128 | 0.5 (≈ 1.3 µM) | > 128 | 5.8 (≈ 15.1 µM) | 0.25 (≈ 0.649 µM) | 0.5 (≈ 1.3 µM) | > 25 | < 0.12 | > 128 | 0.25 (≈ 0.649 µM) |  | 0.25 (≈ 0.649 µM) | CC(C)COc1nc(NC(=O)Nc2ccc(Cl)c(Cl)c2)sc1C#N
